As a reminder, the solubility is the concentration that dissolves in the medium under given conditions.

Converted amounts (≈) assume the structure as drawn. Like-named read-outs stand apart in the source and are kept apart here.

The nature of one data set: Solubility in water. The following applies: in water (37° C.). It is filed as physicochemical. Here is the method: (§1) As examples of crystalline polymorphs other than the crystalline polymorph of the present invention, there are the crystalline polymorph (crystalline form γ) having strong diffraction peaks (diffraction angle: 2θ±0.1°) at 18.1, 19.7, 20.3, 21.2 and 22.4° and the crystalline polymorph (crystalline form […]) having strong diffraction peaks (diffraction angle: 2θ±0.1°) at 10.2, 13.2, 17.6, 19.8 and 20.6° in powder X-ray diffraction pattern. […] Thus, the crystalline polymorph of the present invention has an excellent low hygroscopicity and good storage. […] Thus, the crystalline polymorph of the present invention is favorable to oral administration and has a favorable efficiency in preparing liquid preparations such as injections.

Data set [1] is described as follows: Hygroscopicity (moisture absorption on standing under relative humidity). It is filed as physicochemical. Here is the method: as §1
Data set [2] in a line: Drug absorption on oral administration. It is filed as in vivo. The following applies: orally administered. As for the experimental part:
as §1

Another data set concerns the target T1, β2-Adrenoceptor (Rattus norvegicus, UniProt P10608).
T1 construct: The uteri of pregnant SD rats (pregnancy day of 21) were isolated; from tissue; host or cells: isolated uterus (longitudinal myometrial preparations) of pregnant SD rats, day 21
In words: β2-Adrenoceptor stimulating effect: spontaneous contractions of isolated pregnant rat uterus (Magnus method). It is filed as cell-based. The following applies: isolated uterus of pregnant SD rats (day 21), cumulative addition every 5 minutes, 37° C.; read-out: 50% inhibitory drug concentration (EC50 value), uterine contractions. As for the experimental part:
The uteri of pregnant SD rats (pregnancy day of 21) were isolated, and longitudinal preparations of approximately 15 mm in length and approximately 5 mm in width free from the basal plate were prepared. The experiment was conducted according to the Magnus method. The preparations with a tension of 1 g were exposed to Locke-Ringer solution maintained at 37° C. and gassed with a mixture of 95% of oxygen and 5% of carbon dioxide. Spontaneous contractions of the myometrium were isometrically measured with a force-displacement transducer and recorded by a rectigram. 2-[4-[2-[[(1S, 2R)-2-Hydroxy-2-(4-hydroxyphenyl)-1-methylethyl]amino]ethyl]-phenoxy]acetic acid was cumulatively added to the Magnus bath every 5 minutes. The drug efficacy was evaluated by comparing the sum of uterine contractions during 5 minutes after the addition of the drug with that during 5 minutes before the addition of the drug which was expressed as 100%.

T1 sequence (P10608 whole entry): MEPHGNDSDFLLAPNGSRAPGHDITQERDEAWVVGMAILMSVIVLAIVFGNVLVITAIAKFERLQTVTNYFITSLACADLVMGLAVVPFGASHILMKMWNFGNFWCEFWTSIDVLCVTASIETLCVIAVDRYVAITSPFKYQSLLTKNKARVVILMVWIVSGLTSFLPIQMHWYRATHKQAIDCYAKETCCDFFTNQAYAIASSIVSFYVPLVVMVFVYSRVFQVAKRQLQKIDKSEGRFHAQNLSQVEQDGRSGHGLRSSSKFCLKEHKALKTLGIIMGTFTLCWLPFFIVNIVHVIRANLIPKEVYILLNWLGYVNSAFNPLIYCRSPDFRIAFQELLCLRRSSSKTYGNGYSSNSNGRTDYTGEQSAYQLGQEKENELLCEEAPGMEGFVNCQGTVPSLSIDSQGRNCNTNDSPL

`C[C@H](NCCc1ccc(OCC(=O)O)cc1)[C@H](O)c1ccc(O)cc1` [crystalline form δ, 2-[4-[2-[[(1S,2R)-2-Hydroxy-2-(4-hydroxyphenyl)-1-methyl-ethyl]amino]ethyl]phenoxy]acetic Acid (Crystalline Form δ)] displayed a solubility in the data set “Solubility in water” of 1800 µg/mL (≈ 5.21 mM).
As to `CC(NCCc1ccc(OCC(=O)O)cc1)C(O)c1ccc(O)cc1` [crystalline form α, 2-[4-[2-[[(1S,2R)-2-Hydroxy-2-(4-hydroxyphenyl)-1-methyl-ethyl]amino]ethyl]phenoxy]acetic Acid (Crystalline Form α)], the solubility in “Solubility in water” (read-out: solubility) worked out at 2700 µg/mL (≈ 7.82 mM). The “moisture absorption (hygroscopicity)” value in data set [1] (allowed to stand for 10 days under relative humidities of 51-93%) is on record as “does not absorb moisture”. Moreover, the drug absorption result in data set [2] is listed as “excellent drug absorption”.
Consider `C[C@H](NCCc1ccc(OCC(=O)O)cc1)[C@H](O)c1ccc(O)cc1` [crystalline form γ, 2-[4-[2-[[(1S,2R)-2-Hydroxy-2-(4-hydroxyphenyl)-1-methyl-ethyl]amino]ethyl]phenoxy]acetic Acid (Crystalline Form γ)], for which the “moisture absorption (hygroscopicity)” value in data set [1] (conditions not given) was “easily absorb moisture to convert into their hydrates”.
As to `C[C@H](NCCc1ccc(OCC(=O)O)cc1)[C@H](O)c1ccc(O)cc1` [2-[4-[2-[[(1S,2R)-2-hydroxy-2-(4-hydroxy-phenyl)-1-methylethyl]amino]ethyl]phenoxy]acetic acid], at β2-Adrenoceptor, the EC50 was found to be 31 nM.
